The target of assay [1] is T1, human PPARα receptor (Homo sapiens, UniProt Q07869).
T1 construct: transiently transfecting GAL4-hPPARα-LBD or GAL4-hPPARγ-LBD constructs; GAL4 (fusion partner); expressed in transfected cells; host or cells: HEK293 cells stably expressing 5×GAL4RE-Luciferase
T1 sequence (Q07869 239-466 limits assumed): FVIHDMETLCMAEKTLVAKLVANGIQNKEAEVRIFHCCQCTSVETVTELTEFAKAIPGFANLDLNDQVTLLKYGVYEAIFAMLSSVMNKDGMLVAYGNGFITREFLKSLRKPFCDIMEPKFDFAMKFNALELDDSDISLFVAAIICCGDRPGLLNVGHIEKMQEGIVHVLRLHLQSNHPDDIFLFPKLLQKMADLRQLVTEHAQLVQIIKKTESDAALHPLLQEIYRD
Briefly: GAL4-hPPARα-LBD functional transactivation (luciferase) assay in HEK293 cells. In kind it is cell-based. As to conditions: for Emax: HEK293, maximum activity vs maximal activity of 100 μM fenofibric acid, read-out: PPARα % efficacy. On the procedure: (§1) In vitro PPAR agonist functional assays were performed by transiently transfecting GAL4-hPPARα-LBD or GAL4-hPPARγ-LBD constructs respectively into HEK293 (human embryonic kidney) cells stably expressing 5×GAL4RE-Luciferase. Agonist binding results in an increase in luciferase enzyme activity which can be monitored by measuring luminescence upon cell lysing and the addition of luciferin substrate. EC50 values (μM) for PPARα or γ agonist activity were calculated as the concentration of the test ligand (μM) required for the half-maximal activity in HEK293 cells. The efficacy of a test ligand is defined as its maximum activity as compared to the maximal activity of the primary standards, 100 μM fenofibric acid for PPARα and 1 μM rosiglitazone for PPARγ, reported as % efficacy.

Assay [2] concerns the target T2, human PPARγ receptor (Homo sapiens, UniProt P37231).
T2 construct: transiently transfecting GAL4-hPPARα-LBD or GAL4-hPPARγ-LBD constructs; GAL4 (fusion partner); expressed in transfected cells; host or cells: HEK293 cells stably expressing 5×GAL4RE-Luciferase
T2 sequence (P37231 238-503 limits assumed): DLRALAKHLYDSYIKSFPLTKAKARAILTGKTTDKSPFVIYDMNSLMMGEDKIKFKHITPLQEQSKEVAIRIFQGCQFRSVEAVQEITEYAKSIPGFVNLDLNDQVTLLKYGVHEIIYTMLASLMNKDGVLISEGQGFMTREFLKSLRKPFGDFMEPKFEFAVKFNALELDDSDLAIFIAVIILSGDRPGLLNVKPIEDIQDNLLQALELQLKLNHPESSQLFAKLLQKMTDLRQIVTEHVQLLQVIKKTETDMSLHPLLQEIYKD
Briefly: GAL4-hPPARγ-LBD functional transactivation (luciferase) assay in HEK293 cells. In kind it is cell-based. The settings on record: for Emax: HEK293, maximum activity vs maximal activity of 1 μM rosiglitazone, read-out: PPARγ % efficacy. The protocol: as §1

Assay [3] concerns high fat-fed hamster. Briefly: High fat-fed hamster model: plasma triglyceride and cholesterol levels. The settings on record: 10 mg/kg orally dosed once daily for 14 days; high fat-fed male hamsters, fasted overnight. In kind it is in vivo, Golden Syrian Hamster (Mesocricetus auratus). On the procedure:
It is known by one skilled in the art that the compounds of the present invention decrease plasma triglycerides and cholesterol levels at doses ≧10 mg/kg in rodent models of atherosclerosis and dyslipidemia (e.g. the high fat-fed hamster model). The typical administration of said compounds is expected to be between 0.1 to 2,000 mg/day in the clinical setting, and is preferably between 0.5 to 100 mg/day. (Reference for high fat-fed hamster model as an in vivo rodent model for anti-atheroslerosis efficacy: P-R Wang et al., Eur. Journ. of Pharm., 2001, 427, 285-293).
Male Golden Syrian Hamster (Mesocricetus auratus), 7-10 weeks of age and weighing 110-120 grams, were put on a high fat diet (D11953) for two weeks. The high fat diet was formulated by Research Diets, Inc, New Brunswick, N.J. using Purina 5001 as the base diet. Final composition (% by weight) of the diet is: 11.5% coconut oil, 11.5% corn oil, 0.5% cholesterol and 5% fructose. […] Plasma samples were obtained from hamsters fasted overnight (18 hours after last administration of compound) on day 22. The plasma triglyceride and cholesterol levels were determined and the percentage reductions in both parameters of drug-treated animals relative to vehicle-treated animals are shown in Table 2 below.

Here are results for two molecules from patent US7795291B2, “Substituted acid derivatives useful as anti-atherosclerotic, anti-dyslipidemic, anti-diabetic and anti-obesity agents and method” (Bristol-Myers Squibb Company, priority 2006, dated 2010).

Each structure is given as a SMILES string.

In general, EC50 refers to the concentration at which the effect is half-maximal. A high value points to a need for much substance.

Turning to `COC(=O)N(CC(=O)O)Cc1cccc(OCc2nc(-c3ccc(Cl)cc3)oc2C)c1` [Compound 1, Glycine, N-[[3-[[2-(4-chlorophenyl)-5-methyl-4-oxazolyl]methoxy]phenyl]methyl]-N-(methoxycarbonyl)-], in assay [1], the Emax is 81%. In assay [2], the Emax came to 83%. Further, in assay [3], the “% Reduction in Plasma Total Cholesterol vs Vehicle-control group” value is listed as −38% and the “% Reduction in Plasma Triglycerides vs Vehicle-control group” value was −77%.
Turning to `COC(=O)N(CC(=O)O)Cc1cc(OCc2nc(-c3ccc(Cl)cc3)oc2C)ccc1F` [Compound 2], the EC50 in assay [1] (GAL4-hPPARα-LBD in HEK293 cells, 5×GAL4RE-Luciferase) was 4 ± 1 nM; in assay [2] (GAL4-hPPARγ-LBD in HEK293 cells, 5×GAL4RE-Luciferase), 4510 ± 1310 nM. In addition, the Emax was 81% in assay [1] and 67% in assay [2]. In assay [3], the “% Reduction in Plasma Total Cholesterol vs Vehicle-control group” value is listed as −60%. The “% Reduction in Plasma Triglycerides vs Vehicle-control group” value in assay [3] is listed as −85%.
